Legend:
Format in all cases: in vivo
[1] = tested on: bulrush; test: Test Example 1: herbicidal effects in preemergence treatment under submerged conditions; details: dose 2.52 g/a
In short: (§1)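 Score 0–5 by mortality (5: ≥90%; 0: <5%), read 3 weeks post-application. Paddy-type cups: alluvial soil under 4 cm water, weeds seeded plus transplanted 2.5-leaf rice; diluted EC dosed onto water surface same day as sowing, g/a basis; greenhouse 25 to 30° C.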

[2] = tested on: barnyardgrass; test: as above; details: dose 2.52 g/a
In short: as §1

[3] = tested on: ducksalad; test: as above; details: dose 2.52 g/a
In short: as §1

[4] = tested on: wild oat; test: Test Example 3: herbicidal effects in soil treatment; details: dose 3.2 g/a
In short: (§2)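 Seeds were sown in sterilized diluvial soil and covered with about 1.5 cm of soil. Compounds, formulated as emulsifiable concentrates and diluted with water, were sprayed evenly over the soil surface at set doses in g/a. Herbicidal effect was scored on a rating scale three weeks later.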

[5] = tested on: common ragweed; test: as above; details: dose 3.2 g/a
In short: as §2

[6] = tested on: large crabgrass; test: as above; details: dose 3.2 g/a
In short: as §2

[7] = tested on: velvetleaf; test: as above; details: dose 3.2 g/a
In short: as §2

[8] = tested on: Italian ryegrass; test: as above; details: dose 3.2 g/a
In short: as §2

[9] = tested on: barnyardgrass; test: as above; details: dose 3.2 g/a
In short: as §2

[10] = tested on: water foxtail; test: as above; details: dose 3.2 g/a
In short: as §2

[11] = tested on: common chickweed; test: as above; details: dose 3.2 g/a
In short: as §2

[12] = tested on: beadstraw; test: as above; details: dose 3.2 g/a
In short: as §2

[13] = tested on: posumbu knotweed; test: as above; details: dose 3.2 g/a
In short: as §2

[14] = tested on: common lambsquater; test: as above; details: dose 3.2 g/a
In short: as §2

[15] = tested on: redroot pigweed; test: as above; details: dose 3.2 g/a
In short: as §2

[16] = tested on: giant foxtail; test: as above; details: dose 3.2 g/a
In short: as §2

[17] = tested on: bulrush; test: Test Example 2: herbicidal effects during the vegetation period under submerged conditions; details: treatment during the vegetation period under submerged conditions; dose 2.52 g/a
In short: (§3)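 Barnyardgrass, bulrush and ducksalad were co-sown in alluvial soil flooded to 4 cm and grown in a greenhouse at 25 to 30° C. At the 1- or 2-leaf stage, water-diluted emulsifiable concentrates went onto the water surface at set doses (g/a). Herbicidal effect was scored three weeks later on a graded scale.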

[18] = tested on: barnyardgrass; test: as above; details: treatment during the vegetation period under submerged conditions; dose 2.52 g/a
In short: as §3

[19] = tested on: ducksalad; test: as above; details: treatment during the vegetation period under submerged conditions; dose 2.52 g/a
In short: as §3

[20] = tested on: common ragweed; test: Test Example 4: herbicidal effect in foliage treatment; details: dose 3.2 g/a, three weeks after application
In short: (§4)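 Seeds were spot-sown in boxes of sterilized diluvial soil and raised in a greenhouse (25 to 30° C) for 14 days before a single foliar application. Compounds were applied as emulsifiable concentrates diluted with water, at predetermined doses in g/a. Injury was graded three weeks post-spray.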

[21] = tested on: large crabgrass; test: as above; details: dose 3.2 g/a, three weeks after application
In short: as §4

[22] = tested on: velvetleaf; test: as above; details: dose 3.2 g/a, three weeks after application
In short: as §4

[23] = tested on: Italian ryegrass; test: as above; details: dose 3.2 g/a, three weeks after application
In short: as §4

[24] = tested on: barnyardgrass; test: as above; details: dose 3.2 g/a, three weeks after application
In short: as §4

[25] = tested on: water foxtail; test: as above; details: dose 3.2 g/a, three weeks after application
In short: as §4

[26] = tested on: common chickweed; test: as above; details: dose 3.2 g/a, three weeks after application
In short: as §4

[27] = tested on: beadstraw; test: as above; details: dose 3.2 g/a, three weeks after application
In short: as §4

[28] = tested on: posumbu knotweed; test: as above; details: dose 3.2 g/a, three weeks after application
In short: as §4

[29] = tested on: common lambsquater; test: as above; details: dose 3.2 g/a, three weeks after application
In short: as §4

[30] = tested on: redroot pigweed; test: as above; details: dose 3.2 g/a, three weeks after application
In short: as §4

[31] = tested on: giant foxtail; test: as above; details: dose 3.2 g/a, three weeks after application
In short: as §4

[32] = tested on: transplanted rice; test: Test Example 1: preemergence treatment under submerged conditions, effect on crop; details: dose 2.52 g/a
In short: as §1

CCC(=O)N(c1ccccc1CN1COC2(CCCC2)CC1=O)S(=O)(=O)C(F)(F)F [II-65]
B: bulrush, herbicidal effect (evaluation scale 0-5) [1]: 5 (mortality of 90% or above (nearly complete death))
A: barnyardgrass, herbicidal effect (evaluation scale 0-5) [2]: 5 (mortality of 90% or above (nearly complete death))
C: ducksalad, herbicidal effect (evaluation scale 0-5) [3]: 5 (mortality of 90% or above (nearly complete death))
F: wild oat, herbicidal effect (evaluation scale 0-5) [4]: 0 (mortality of less than 5% (almost ineffective))
J: common ragweed, herbicidal effect (evaluation scale 0-5) [5]: 4 (mortality of at least 70% and less than 90%)
D: large crabgrass, herbicidal effect (evaluation scale 0-5) [6]: 5 (mortality of 90% or above (nearly complete death))
I: velvetleaf, herbicidal effect (evaluation scale 0-5) [7]: 3 (mortality of at least 40% and less than 70%)
H: Italian ryegrass, herbicidal effect (evaluation scale 0-5) [8]: 5 (mortality of 90% or above (nearly complete death))
A: barnyardgrass, herbicidal effect (evaluation scale 0-5) [9]: 5 (mortality of 90% or above (nearly complete death))
G: water foxtail, herbicidal effect (evaluation scale 0-5) [10]: 5 (mortality of 90% or above (nearly complete death))
N: common chickweed, herbicidal effect (evaluation scale 0-5) [11]: 5 (mortality of 90% or above (nearly complete death))
O: beadstraw, herbicidal effect (evaluation scale 0-5) [12]: 0 (mortality of less than 5% (almost ineffective))
M: posumbu knotweed, herbicidal effect (evaluation scale 0-5) [13]: 4 (mortality of at least 70% and less than 90%)
L: common lambsquater, herbicidal effect (evaluation scale 0-5) [14]: 0 (mortality of less than 5% (almost ineffective))
K: redroot pigweed, herbicidal effect (evaluation scale 0-5) [15]: 2 (mortality of at least 20% and less than 40%)
E: giant foxtail, herbicidal effect (evaluation scale 0-5) [16]: 5 (mortality of 90% or above (nearly complete death))
B: bulrush, herbicidal effect (evaluation scale 0-5) [17]: 5 (mortality of 90% or above (nearly complete death))
A: barnyardgrass, herbicidal effect (evaluation scale 0-5) [18]: 5 (mortality of 90% or above (nearly complete death))
C: ducksalad, herbicidal effect (evaluation scale 0-5) [19]: 5 (mortality of 90% or above (nearly complete death))
J: common ragweed, herbicidal effect [20]: 3 (mortality of at least 40% and less than 70%)
D: large crabgrass, herbicidal effect [21]: 3 (mortality of at least 40% and less than 70%)
I: velvetleaf, herbicidal effect [22]: 3 (mortality of at least 40% and less than 70%)
H: Italian ryegrass, herbicidal effect [23]: 3 (mortality of at least 40% and less than 70%)
A: barnyardgrass, herbicidal effect [24]: 3 (mortality of at least 40% and less than 70%)
G: water foxtail, herbicidal effect [25]: 5 (mortality of 90% or above (nearly complete death))
N: common chickweed, herbicidal effect [26]: 5 (mortality of 90% or above (nearly complete death))
O: beadstraw, herbicidal effect [27]: 0 (mortality of less than 5% (almost ineffective))
M: posumbu knotweed, herbicidal effect [28]: 3 (mortality of at least 40% and less than 70%)
L: common lambsquater, herbicidal effect [29]: 2 (mortality of at least 20% and less than 40%)
K: redroot pigweed, herbicidal effect [30]: 0 (mortality of less than 5% (almost ineffective))
E: giant foxtail, herbicidal effect [31]: 4 (mortality of at least 70% and less than 90%)
a: transplanted rice, effect on crop (evaluation scale 0-5) [32]: 0 (mortality of less than 5% (almost ineffective))
